From patent publication US10414811B2, “Protease-resistant lipidated GLP-1 analogs” (MEDIMMUNE LIMITED, priority 2015, dated 2019)
pEC50: −log10 of the molar value. Read-outs that look alike come from different tables or passages of the source. Numbered stars: 1 amine (or outer) side, 2 acyl side, 3 side chain; on linkers, the order of the positions; unused ones are H or OH. Square brackets hold non-standard residues; d marks the D form. Side chains are listed from the residue outwards. Peptide text beside a SMILES is read from it. * marks the point of attachment. C18 diacid = O=C(O)CCCCCCCCCCCCCCCCC(=O)*; γGlu = O=C(O)[C@H](CCC(=O)[*:2])N[*:1]; Palmitoyl = CCCCCCCCCCCCCCCC(=O)*; αMeF = C[C@](N)(Cc1ccccc1)C(=O)O; αMeK = C[C@](N)(CCCCN)C(=O)O; αMeS = C[C@](N)(CO)C(=O)O; AEEA = NCCOCCOCC(=O)O; Aib = CC(C)(N)C(=O)O

Experiments:
Type in all cases: cell-based
[1] = target: T1, human glucagon receptor (GCGR) (Homo sapiens, UniProt P47871); test: cAMP assay, human GCGR cells; details: cAMP assay
T1 construct: expressed in transfected cells
T1 sequence (P47871 26-477): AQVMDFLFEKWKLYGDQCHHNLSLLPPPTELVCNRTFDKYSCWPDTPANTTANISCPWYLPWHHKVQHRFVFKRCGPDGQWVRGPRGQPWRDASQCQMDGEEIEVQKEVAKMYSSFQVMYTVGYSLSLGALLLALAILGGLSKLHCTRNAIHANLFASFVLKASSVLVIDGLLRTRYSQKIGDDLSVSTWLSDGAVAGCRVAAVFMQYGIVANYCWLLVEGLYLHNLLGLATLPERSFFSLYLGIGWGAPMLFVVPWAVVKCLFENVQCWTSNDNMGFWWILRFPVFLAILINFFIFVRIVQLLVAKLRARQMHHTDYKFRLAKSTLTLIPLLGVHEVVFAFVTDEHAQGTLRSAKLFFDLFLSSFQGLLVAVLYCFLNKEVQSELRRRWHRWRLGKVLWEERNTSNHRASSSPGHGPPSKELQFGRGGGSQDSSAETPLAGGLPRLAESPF
Method in brief: (§1)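 Peptide-stimulated cAMP measured by two-step HTRF after a 30 min room-temperature incubation with receptor-expressing cells (hGLP-1R, hGIPR at 1×10^5 cells/ml; hGCGR at 2×10^5 cells/ml). Duplicate dilutions; EC50 from 4-parameter logistic fit of % Delta F.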

[2] = target: T2, GLP-1R (INS1e assay) (Rattus norvegicus, UniProt P32301); test: INS1e assay, cAMP activity at GLP-1R; details: mono-lipidated peptides; for EC50: mean of n1 and n2, read-out: INS1e assay EC50 Mean pM GLP-1R
T2 construct: endogenous in cells; host or cells: INS-1E cells
T2 sequence (P32301 22-463): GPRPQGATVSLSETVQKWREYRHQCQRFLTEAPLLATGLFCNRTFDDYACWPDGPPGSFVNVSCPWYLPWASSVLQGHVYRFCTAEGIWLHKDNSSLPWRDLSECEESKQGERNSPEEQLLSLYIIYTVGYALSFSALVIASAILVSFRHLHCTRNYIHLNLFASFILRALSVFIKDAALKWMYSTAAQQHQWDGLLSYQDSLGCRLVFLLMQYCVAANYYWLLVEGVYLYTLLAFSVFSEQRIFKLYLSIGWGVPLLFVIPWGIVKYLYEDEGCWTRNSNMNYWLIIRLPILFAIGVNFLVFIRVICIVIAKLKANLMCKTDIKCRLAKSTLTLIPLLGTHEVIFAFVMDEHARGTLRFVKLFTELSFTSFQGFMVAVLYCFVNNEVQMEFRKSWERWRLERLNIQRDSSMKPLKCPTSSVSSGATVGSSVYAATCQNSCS
Method in brief: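 cAMP was quantified by two-step HTRF, using anti-cAMP cryptate donor and cAMP-d2 acceptor, each diluted 1/20 in conjugate and lysis buffer. EC50 values of the synthetic peptides were derived from the cAMP readout.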

[3] = target: T3, human GLP-1 receptor (GLP-1R) (Homo sapiens, UniProt P43220); test: cAMP assay, human GLP-1R cells; details: for pEC50: cAMP assay; for EC50: mean of n1 and n2, read-out: Mean pM GLP-1R
T3 construct: expressed in transfected cells
T3 sequence (P43220 24-463): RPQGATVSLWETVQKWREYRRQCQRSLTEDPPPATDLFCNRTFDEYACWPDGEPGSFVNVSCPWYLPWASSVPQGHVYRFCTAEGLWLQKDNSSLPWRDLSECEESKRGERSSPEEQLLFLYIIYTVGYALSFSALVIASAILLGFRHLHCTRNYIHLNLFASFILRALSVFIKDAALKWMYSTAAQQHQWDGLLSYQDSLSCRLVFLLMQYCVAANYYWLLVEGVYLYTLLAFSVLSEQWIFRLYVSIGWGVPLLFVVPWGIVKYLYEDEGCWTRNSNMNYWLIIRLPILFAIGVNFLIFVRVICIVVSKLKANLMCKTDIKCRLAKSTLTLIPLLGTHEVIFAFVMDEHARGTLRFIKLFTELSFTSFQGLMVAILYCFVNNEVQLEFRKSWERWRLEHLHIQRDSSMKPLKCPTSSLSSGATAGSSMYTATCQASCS
Method in brief: as §1

[4] = target: T4, human glucose-dependent insulinotropic peptide receptor (GIPR) (Homo sapiens, UniProt P48546); test: cAMP assay, human GIPR cells; details: cAMP assay
T4 construct: expressed in transfected cells
T4 sequence (P48546 22-466): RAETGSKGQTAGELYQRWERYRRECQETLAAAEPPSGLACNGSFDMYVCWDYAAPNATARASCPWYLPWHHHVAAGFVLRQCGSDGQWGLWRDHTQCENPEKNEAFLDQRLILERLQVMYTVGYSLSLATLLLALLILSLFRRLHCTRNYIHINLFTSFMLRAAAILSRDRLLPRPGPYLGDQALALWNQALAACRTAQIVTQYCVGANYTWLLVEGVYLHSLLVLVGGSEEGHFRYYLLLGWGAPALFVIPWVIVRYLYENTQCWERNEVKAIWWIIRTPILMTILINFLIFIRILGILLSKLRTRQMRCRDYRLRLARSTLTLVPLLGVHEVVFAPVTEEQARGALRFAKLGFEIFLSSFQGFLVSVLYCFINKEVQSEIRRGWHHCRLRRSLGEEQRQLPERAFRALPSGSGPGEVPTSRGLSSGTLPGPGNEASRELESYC
Method in brief: as §1

[5] = first determination (n1), read-out: Primary assay EC50 Gluc-R (n1)
[6] = second determination (n2), read-out: Primary assay EC50 Gluc-R (n2)
[7] = replicate n1, read-out: INS1e assay EC50 GLP-1R n1
[8] = replicate n2, read-out: INS1e assay EC50 GLP-1R n2
[9] = first determination (n1), read-out: Primary assay EC50 GLP-1R n1
[10] = second determination (n2), read-out: Primary assay EC50 GLP-1R n2
[11] = first determination (n1), read-out: Primary assay EC50 GIP-R (n1)
[12] = second determination (n2), read-out: Primary assay EC50 GIP-R (n2)

pEC50 [1, 5]	pEC50 [1, 6]	EC50 [2] [pM]	pEC50 [2, 7]	pEC50 [2, 8]	pEC50 [3, 9]	pEC50 [3, 10]	EC50 [3] [pM]	pEC50 [4, 11]	pEC50 [4, 12]	Compound
≤ 7.55	≤ 7.55	53	10.36	10.21	11.80	11.80	1.6	≤ 7.55	≤ 7.55	CCCCCCCCCCCCCCCC(=O)N[C@@H](CCC(=O)NCCCC[C@H](NC(=O)[C@H](CO)NC(=O)[C@](C)(CO)NC(=O)[C@@H](NC(=O)[C@H](CC(=O)O)NC(=O)[C@H](CO)NC(=O)[C@@H](NC(=O)[C@](C)(Cc1ccccc1)NC(=O)[C@H](CO)NC(=O)CNC(=O)[C@H](CCC(=O)O)NC(=O)C(C)(C)NC(=O)[C@@H](N)Cc1c[nH]cn1)[C@@H](C)O)C(C)C)C(=O)N[C@@H](CC(C)C)C(=O)N[C@@H](CCC(=O)O)C(=O)NCC(=O)N[C@@H](CCC(=O)O)C(=O)N[C@@H](C)C(=O)N[C@@H](C)C(=O)N[C@@](C)(CCCCN)C(=O)N[C@@H](CCC(=O)O)C(=O)N[C@@](C)(Cc1ccccc1)C(=O)N[C@H](C(=O)N[C@@H](C)C(=O)N[C@@](C)(Cc1ccccc1)C(=O)N[C@H](C(=O)N[C@H](C(=O)N[C@@](C)(CCCCN)C(=O)NCC(=O)NCC(N)=O)C(C)C)C(C)C)[C@@H](C)CC)C(=O)O [compound 87]
≤ 7.55	≤ 7.55	2720	8.71	8.46	10.68	10.57	24	≤ 7.55	≤ 7.55	CCCCCCCCCCCCCCCC(=O)N[C@@H](CCC(=O)NCCCC[C@H](NC(=O)[C@H](CO)NC(=O)[C@@H](NC(=O)[C@](C)(Cc1ccccc1)NC(=O)[C@H](CO)NC(=O)CNC(=O)[C@H](CCC(=O)O)NC(=O)C(C)(C)NC(=O)[C@@H](N)Cc1c[nH]cn1)[C@@H](C)O)C(=O)N[C@H](C(=O)N[C@@](C)(CO)C(=O)N[C@@H](CO)C(=O)N[C@@](C)(Cc1ccccc1)C(=O)N[C@@H](CC(C)C)C(=O)N[C@@H](CCC(=O)O)C(=O)NCC(=O)N[C@@H](CCC(=O)O)C(=O)N[C@@H](C)C(=O)N[C@@H](C)C(=O)N[C@@](C)(CCCCN)C(=O)N[C@@H](CCC(=O)O)C(=O)N[C@@](C)(Cc1ccccc1)C(=O)N[C@H](C(=O)N[C@@H](C)C(=O)N[C@@](C)(Cc1ccccc1)C(=O)N[C@H](C(=O)N[C@H](C(=O)N[C@@](C)(CCCCN)C(=O)NCC(=O)NCC(N)=O)C(C)C)C(C)C)[C@@H](C)CC)C(C)C)C(=O)O [compound 91] (H-H[Aib]EGS[αMeF]TSK([γGlu-Palmitoyl])V[αMeS]S[αMeF]LEGEAA[αMeK]E[αMeF]IA[αMeF]VV[αMeK]GG-NH2)
≤ 7.60	≤ 7.60	822	9.63	8.85	10.80	–	–	≤ 7.60	≤ 7.60	CC[C@H](C)[C@H](NC(=O)[C@](C)(Cc1ccccc1)NC(=O)[C@H](CCC(=O)O)NC(=O)[C@](C)(CCCCN)NC(=O)[C@H](C)NC(=O)[C@H](C)NC(=O)[C@H](CCC(=O)O)NC(=O)CNC(=O)[C@H](CCC(=O)O)NC(=O)[C@H](CC(C)C)NC(=O)[C@](C)(Cc1ccccc1)NC(=O)[C@H](CO)NC(=O)[C@](C)(CO)NC(=O)[C@@H](NC(=O)[C@H](CC(=O)O)NC(=O)[C@H](CO)NC(=O)[C@@H](NC(=O)[C@](C)(Cc1ccccc1)NC(=O)[C@H](CO)NC(=O)CNC(=O)[C@H](CCC(=O)O)NC(=O)C(C)(C)NC(=O)[C@@H](N)Cc1c[nH]cn1)[C@@H](C)O)C(C)C)C(=O)N[C@@H](C)C(=O)N[C@@](C)(Cc1ccccc1)C(=O)N[C@H](C(=O)N[C@H](C(=O)N[C@@](C)(CCCCN)C(=O)N[C@@H](CCCCNC(=O)COCCOCCNC(=O)COCCOCCNC(=O)CC[C@H](NC(=O)CCCCCCCCCCCCCCCCC(=O)O)C(=O)O)C(=O)NCC(N)=O)C(C)C)C(C)C [compound 100] (H-H[Aib]EGS[αMeF]TSDV[αMeS]S[αMeF]LEGEAA[αMeK]E[αMeF]IA[αMeF]VV[αMeK]K([AEEA-AEEA-γGlu-C18 diacid])G-NH2)
≤ 7.60	≤ 7.60	4060	8.83	8.18	10.24	10.29	55	≤ 7.60	≤ 7.60	CC[C@H](C)[C@H](NC(=O)[C@](C)(Cc1ccccc1)NC(=O)[C@H](CCC(=O)O)NC(=O)[C@](C)(CCCCN)NC(=O)[C@H](C)NC(=O)[C@H](C)NC(=O)[C@H](CCC(=O)O)NC(=O)CNC(=O)[C@H](CCC(=O)O)NC(=O)[C@H](CC(C)C)NC(=O)[C@](C)(Cc1ccccc1)NC(=O)[C@H](CO)NC(=O)[C@](C)(CO)NC(=O)[C@@H](NC(=O)[C@H](CC(=O)O)NC(=O)[C@H](CO)NC(=O)[C@@H](NC(=O)[C@](C)(Cc1ccccc1)NC(=O)[C@H](CO)NC(=O)CNC(=O)[C@H](CCC(=O)O)NC(=O)C(C)(C)NC(=O)[C@@H](N)Cc1c[nH]cn1)[C@@H](C)O)C(C)C)C(=O)N[C@@H](C)C(=O)N[C@@](C)(Cc1ccccc1)C(=O)N[C@H](C(=O)N[C@H](C(=O)N[C@@H](CCCCNC(=O)COCCOCCNC(=O)COCCOCCNC(=O)CC[C@H](NC(=O)CCCCCCCCCCCCCCCCC(=O)O)C(=O)O)C(=O)NCC(=O)NCC(N)=O)C(C)C)C(C)C [compound 101]
≤ 7.59	≤ 7.59	331	9.41	9.57	11.23	–	–	≤ 7.59	≤ 7.59	CC[C@H](C)[C@H](NC(=O)[C@](C)(Cc1ccccc1)NC(=O)[C@H](CCC(=O)O)NC(=O)[C@](C)(CCCCN)NC(=O)[C@H](C)NC(=O)[C@H](C)NC(=O)[C@H](CCC(=O)O)NC(=O)CNC(=O)[C@H](CCC(=O)O)NC(=O)[C@H](CC(C)C)NC(=O)[C@](C)(Cc1ccccc1)NC(=O)[C@H](CO)NC(=O)[C@](C)(CO)NC(=O)[C@@H](NC(=O)[C@H](CC(=O)O)NC(=O)[C@H](CO)NC(=O)[C@@H](NC(=O)[C@](C)(Cc1ccccc1)NC(=O)[C@H](CO)NC(=O)CNC(=O)[C@H](CCC(=O)O)NC(=O)C(C)(C)NC(=O)[C@@H](N)Cc1c[nH]cn1)[C@@H](C)O)C(C)C)C(=O)N[C@@H](C)C(=O)N[C@@H](CCCCNC(=O)COCCOCCNC(=O)COCCOCCNC(=O)CC[C@H](NC(=O)CCCCCCCCCCCCCCCCC(=O)O)C(=O)O)C(=O)N[C@H](C(=O)N[C@H](C(=O)N[C@@](C)(CCCCN)C(=O)NCC(=O)NCC(N)=O)C(C)C)C(C)C [compound 104]
≤ 7.59	≤ 7.59	8460	8.28	7.93	10.08	10.15	77	≤ 7.59	≤ 7.59	CC[C@H](C)[C@H](NC(=O)[C@H](CCCCNC(=O)COCCOCCNC(=O)COCCOCCNC(=O)CC[C@H](NC(=O)CCCCCCCCCCCCCCCCC(=O)O)C(=O)O)NC(=O)[C@H](CCC(=O)O)NC(=O)[C@](C)(CCCCN)NC(=O)[C@H](C)NC(=O)[C@H](C)NC(=O)[C@H](CCC(=O)O)NC(=O)CNC(=O)[C@H](CCC(=O)O)NC(=O)[C@H](CC(C)C)NC(=O)[C@](C)(Cc1ccccc1)NC(=O)[C@H](CO)NC(=O)[C@](C)(CO)NC(=O)[C@@H](NC(=O)[C@H](CC(=O)O)NC(=O)[C@H](CO)NC(=O)[C@@H](NC(=O)[C@](C)(Cc1ccccc1)NC(=O)[C@H](CO)NC(=O)CNC(=O)[C@H](CCC(=O)O)NC(=O)C(C)(C)NC(=O)[C@@H](N)Cc1c[nH]cn1)[C@@H](C)O)C(C)C)C(=O)N[C@@H](C)C(=O)N[C@@](C)(Cc1ccccc1)C(=O)N[C@H](C(=O)N[C@H](C(=O)N[C@@](C)(CCCCN)C(=O)NCC(=O)NCC(N)=O)C(C)C)C(C)C [compound 107]
